For ten compounds, IC50 results are on record in PMC8745710, “Biological Evaluation and Molecular Docking Studies of Novel 1,3,4-Oxadiazole Derivatives of 4,6-Dimethyl-2-sulfanylpyridine-3-carboxamide” (International Journal of Molecular Sciences, 2022).

What all share (format): cell-based
Assay [1] has as its system A549 (pulmonary basal cell alveolar adenocarcinoma). As to the kind of experiment: MTT assay, A549. The note with it: Homo sapiens, 48 h incubation, read-out: IC50 [µM] ± SD A549. The text has this:
(§1) The MTT (3-[4,5-dimethylthiazol-2-yl]-2,5-diphenyl tetrazolium bromide) assay was used to determine the cytotoxicity of tested compounds towards different cell lines: normal human dermal fibroblasts (NHDF), kidney epithelial cells (VERO), fibroblasts from Chinese hamster lung (V79) and four human cancer cells: A549 (pulmonary basal cell alveolar adenocarcinoma), MCF-7 (breast adenocarcinoma), LoVo (colon adenocarcinoma), and its drug resistant subline LoVo/Dx. The cell lines used in this study express COX-1 and COX-2. The LoVo line expressed COX-1, the LoVo/Dx subline express both COX-1 and COX-2 [61].
(§2) Each cell line was grown in the culture media recommended by supplier. Before the test they were detached with trypsin/EDTA solution, then to neutralize the effect of Trypsin/EDTA solution, FBS containing medium was used. After centrifugation the cells were stained with 0.4% solution of trypan blue, counted and inspected for viability using microscope. In the end, cells were inserted into 96-well culture plates and incubated in CO2 incubator (37 °C, 24 h). The number of cells was 2 × 10^3 cells per well. The tested compounds with different concentrations (5, 10, 20, 50, 100 µM) were dissolved in DMSO and then added to the cells (the final DMSO concentration was 0.1%). The cultures were incubated for another 48 h. After that time the cells were collected to be used in tests.
(§3) MTT assay was used to find out how tested compounds influence the metabolic activity of investigated cell lines. The cells were incubated with tested compounds. After removing of supernatant, 1 mg/mL of MTT solution in MEM was added to the plate (to each well) and then the plates were incubated at 37 °C for 2 h. The medium was removed again, and formazan crystals were dissolved in isopropanol. A Varioscan LUX microplate reader (Thermo Fisher Scientific, Waltham, MA, USA) was used to measure absorbance at 570 nm.
(In general: Tetrazolium dyes change colour on reduction, which living cells bring about.)

For assay [2], the system named is MCF-7 (breast adenocarcinoma). As to the kind of experiment: MTT assay, MCF-7. The note with it: Homo sapiens, MCF7, 48 h incubation, read-out: IC50 [µM] ± SD MCF-7.
Description: as §1, §2, §3

The subject of assay [3] is NHDF (normal human dermal fibroblasts). As to the kind of experiment: MTT assay, NHDF. To be noted: 48 h incubation, read-out: IC50 [µM] ± SD NHDF.
Description: as §1, §2, §3

For assay [4], the system named is LoVo/Dx (drug resistant subline of LoVo). As to the kind of experiment: MTT assay, LoVo/Dx. To be noted: Homo sapiens, 48 h incubation, read-out: IC50 [µM] ± SD LoVo/Dx.
Description: as §1
as §2, with “In the end, cells were inserted into 96-well culture plates and incubated in CO2 incubator (37 °C, 24 h).” left out
MTT assay was used to find out how tested compounds influence the metabolic activity of investigated cell lines. The cells were incubated with tested compounds. […] The medium was removed again, and formazan crystals were dissolved in isopropanol.

With `CSc1ccc(/C=N\NC(=O)Cn2nc(CNC(=O)c3c(C)cc(C)nc3S)oc2=S)cc1` [Compound 8, 4,6-Dimethyl-N-{[4-(2-(2-(4-methysulfanylbenzylidene)hydrazinyl)-2-oxoethyl)-5-sulfanylidene-4,5-dihydro-1,3,4-oxadiazole-2-yl]methyl}-2-sulfanylpyridine-3-carboxamide], the IC50 amounted to 4.34 ± 0.56 µM in assay [1], 9.41 ± 4.8 µM in assay [2], 58.7 ± 1.94 µM in assay [3] and 21 ± 5.92 µM in assay [4].

With `Cc1ccc(C=NNC(=O)Cn2nc(CNC(=O)c3c(C)cc(C)nc3S)oc2=S)cc1` [Compound 7, 4,6-Dimethyl-N-{[4-(2-(2-(4-methylbenzylidene)hydrazinyl)-2-oxoethyl)-5-sulfanylidene-4,5-dihydro-1,3,4-oxadiazole-2-yl]methyl}-2-sulfanylpyridine-3-carboxamide], the IC50 in assay [1] is 3.72 ± 0.54 µM; in assay [2], 6.33 ± 0.56 µM; in assay [3], 58.2 ± 2 µM; in assay [4], 7.89 ± 1.78 µM.

On to `Cc1cc(C)c(C(=O)NCc2nn(CC(=O)NN)c(=S)o2)c(S)n1` [Compound 4, N-{[4-(2-hydrazinyl-2-oxoethyl)-5-sulfanylidene-4,5-dihydro-1,3,4-oxadiazol-2-yl]methyl}-4,6-dimethyl-2-sulfanylpyridine-3-carboxamide], for which the IC50 in assay [1] stood at 3.84 ± 0.3 µM; in assay [2], 9.63 ± 1.66 µM; in assay [3] it was 57.5 ± 1.22 µM; in assay [4], 5.73 ± 3.84 µM.

As to `Cc1cc(C)c(C(=O)NCc2nn(CC(=O)NN=Cc3ccccc3Br)c(=S)o2)c(S)n1` [Compound 13, 4,6-Dimethyl-N-{[4-(2-(2-(2-bromobenzylidene)hydrazinyl)-2-oxoethyl)-5-sulfanylidene-4,5-dihydro-1,3,4-oxadiazole-2-yl]methyl}-2-sulfanylpyridine-3-carboxamide], the IC50 stood at 3.16 ± 0.21 µM in assay [1], 7.23 ± 0.49 µM in assay [2], 59.3 ± 3.43 µM in assay [3] and 9.4 ± 5.97 µM in assay [4].

In the case of `Cc1cc(C)c(C(=O)NCc2nn(CC(=O)NN=Cc3ccc(Cl)cc3)c(=S)o2)c(S)n1` [Compound 10, 4,6-Dimethyl-N-{[4-(2-(2-(4-chlorobenzylidene)hydrazinyl)-2-oxoethyl)-5-sulfanylidene-4,5-dihydro-1,3,4-oxadiazole-2-yl]methyl}-2-sulfanylpyridine-3-carboxamide], the IC50 in assay [1] worked out at 3.52 ± 0.19 µM; in assay [2], 6.19 ± 0.19 µM; in assay [3], 59.9 ± 2.04 µM; in assay [4], 22.3 ± 2.1 µM.

As to `Cc1cc(C)c(C(=O)NCc2nn(CC(=O)NN=Cc3ccccc3)c(=S)o2)c(S)n1` [Compound 5, 4,6-Dimethyl-N-{[4-(2-(2-benzylidenehydrazinyl)-2-oxoethyl)-5-sulfanylidene-4,5-dihydro-1,3,4-oxadiazol-2-yl]methyl}-2-sulfanylpyridine-3-carboxamide], the IC50 was determined as 3.62 ± 0.43 µM in assay [1], 6.37 ± 1.09 µM in assay [2], 59 ± 1.49 µM in assay [3] and 5.69 ± 1.03 µM in assay [4].

As for `Cc1cc(C)c(C(=O)NCc2nn(CC(=O)NN=Cc3ccc(F)cc3)c(=S)o2)c(S)n1` [Compound 6, 4,6-Dimethyl-N-{[4-(2-(2-(4-fluorobenzylidene)hydrazinyl)-2-oxoethyl)-5-sulfanylidene-4,5-dihydro-1,3,4-oxadiazole-2-yl]methyl}-2-sulfanylpyridine-3-carboxamide], the IC50 in assay [1] was 4.05 ± 0.26 µM; in assay [2] it was 6.37 ± 0.19 µM; in assay [3] it was 58.2 ± 0.92 µM; in assay [4], 7.07 ± 2.48 µM.

`Cc1cc(C)c(C(=O)NCc2nn(CC(=O)NN=Cc3ccc(C#N)cc3)c(=S)o2)c(S)n1` [Compound 9, 4,6-Dimethyl-N-{[4-(2-(2-(4-cyanobenzylidene)hydrazinyl)-2-oxoethyl)-5-sulfanylidene-4,5-dihydro-1,3,4-oxadiazole-2-yl]methyl}-2-sulfanylpyridine-3-carboxamide]: the IC50 is 3.36 ± 0.2 µM in assay [1], 8.22 ± 5.98 µM in assay [2], 59.4 ± 1.9 µM in assay [3] and 6.87 ± 1.45 µM in assay [4].

With `Cc1cc(C)c(C(=O)NCc2nn(CC(=O)NN=Cc3cccc(Cl)c3)c(=S)o2)c(S)n1` [Compound 12, 4,6-Dimethyl-N-{[4-(2-(2-(3-chlorobenzylidene)hydrazinyl)-2-oxoethyl)-5-sulfanylidene-4,5-dihydro-1,3,4-oxadiazole-2-yl]methyl}-2-sulfanylpyridine-3-carboxamide], the IC50 was 3.88 ± 0.5 µM in assay [1], 9.04 ± 2.84 µM in assay [2], 58.7 ± 2.21 µM in assay [3] and 22.6 ± 8.19 µM in assay [4].

Take `Cc1cc(C)c(C(=O)NCc2nn(CC(=O)NN=Cc3ccc(C(F)(F)F)cc3)c(=S)o2)c(S)n1` [Compound 11, 4,6-Dimethyl-N-{[4-(2-(2-(4-trifluoromethylbenzylidene)hydrazinyl)-2-oxoethyl)-5-sulfanylidene-4,5-dihydro-1,3,4-oxadiazole-2-yl]methyl}-2-sulfanylpyridine-3-carboxamide]: the IC50 in assay [1] turned out to be 3.72 ± 0.24 µM; in assay [2] it was 8.29 ± 4.45 µM; in assay [3], 59 ± 3.62 µM; in assay [4] it was 17.5 ± 8.73 µM.
